Assay results taken from US6362360B1, “3-aryl-2-hydroxypropionic acid derivative III” (AstraZeneca AB, priority 1998, dated 2002).

Test system: obese diabetic mice of the Umeå ob/ob strain
Assay: Biological activity in obese diabetic ob/ob mice (plasma glucose, insulin, triglycerides; weight gain)
Assay type: in vivo
Description: The biological activity of the compound of the invention was tested in obese diabetic mice of the Umeå ob/ob strain. Groups of mice received the test compound by gavage once daily for 7 days. On the last day of the experiment the animals were anesthetized 2 h after dose in a non-fed state and blood was collected from an incised artery. Plasma was analyzed for concentration of glucose, insulin and triglycerides. A group of untreated obese diabetic mice of the same age served as control. The weights of the mice were measured before and after the experiment and the obtained weight gains were compared to the weight gains of the control animals. The individual values for glucose, insulin and triglyceride levels of the mice from the test group were expressed as the percentage rage of the corresponding values from the control group. The desired “therapeutic effect” was calculated as the average percent reduction of the three variables glucose, insulin and triglycerides below the levels in the control animals. The therapeutic effect of the tested compounds according to the invention was compared to the same effect in the prior art compound troglitazone, administrered by gavage in the oral dose of 100 μmol/kg for 7 days.

CCO[C@@H](Cc1ccc(OCCc2ccc(NC(=O)OC(C)(C)C)cc2)cc1)C(=O)O [compound of the invention, 3-{4-[2-(4-tert-Butoxycarbonylaminophenyl)ethoxy]phenyl}-(S)-2-ethoxy propanoic acid]
therapeutic effect (average percent reduction of glucose, insulin and triglycerides below the levels in the control animals) (gavage once daily for 7 days, compared to troglitazone in the same oral dose (100 μmol/kg for 7 days)): superior effects | weight gain (weights measured before and after the 7-day experiment, compared to control animals): without undesirable weight gain
